According to patent US20200368315A1, “ANTIMICROBIAL PEPTIDES AND ADMIXTURES THEREOF SHOWING ANTIMICROBIAL ACTIVITY AGAINST GRAM-NEGATIVE PATHOGENS” (priority 2017, published 2020):
Values after ≈ are worked out from the molar mass of the structure shown. Values joined by “and” are separate entries in the source; they are usually repeats but may differ in a detail not shown here. Identical values can stand only once. Like-named read-outs stand apart in the source and are kept apart here.

How the values were obtained:
K. pneumoniae LMG20218 [1] = tested on: K. pneumoniae LMG20218
How it was run: (§1)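 Chequerboard broth microdilution in MHB of two agents in combination, final volume 100 uL, with growth and sterility controls. MICs alone and in combination give FICI = MICac/MICa + MICbc/MICb; synergy FICI≤0.5, additive 0.5–1, indifferent 1–2, antagonism >2.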

E. coli LMG15862 [2] = tested on: E. coli LMG15862
How it was run: as §1

P. aeruginosa LMG 6395 [3] = tested on: P. aeruginosa LMG 6395
How it was run: as §1

A. baumannii LMG01041 [4] = tested on: A. baumannii LMG01041
How it was run: as §1

E. aerogenes LMG 02094 [5] = tested on: E. aerogenes LMG 02094
How it was run: as §1

L. lactis MG1363 [6] = conditions: L. lactis MG1363
K. pneumoniae LMG20218 [7] = assay type: cell-based, Klebsiella pneumoniae; conditions: nisin + GNP
How it was run: (§2)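 Chequerboard broth microdilution in MHB: nisin two-fold serially diluted along one axis and GNPs along the other, each starting at its own MIC. Fresh bacterial suspension added; FIC index calculated as MICac/MICa + MICbc/MICb, with FICI ≤0.5 read as synergy.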

E. coli LMG15862 [8] = assay type: cell-based, Escherichia coli; conditions: nisin + GNP
How it was run: as §2

E. aerogenes LMG 02094 [9] = assay type: cell-based, Enterobacter aerogenes; conditions: nisin + GNP
How it was run: as §2

P. aeruginosa LMG 6395 [10] = assay type: cell-based, Pseudomonas aeruginosa; conditions: nisin + GNP
How it was run: as §2

A. baumannii LMG01041 [11] = assay type: cell-based, Acinetobacter baumannii; conditions: nisin + GNP
How it was run: as §2

[12] = Cell viability (ATP levels, CellTiter-Glo); conditions: human
Description: ATP levels were measured by adding 50 μL of CellTiter-Glo reagent to each well and after 5 minutes of incubation luminescence was measured with SpectraMax i3.
96-well plates were seeded with HEK293 cells at concentration of 30,000 cells per well in 100 μL of DMEM growth media supplemented with 1% NEAA and 10% FBS. Border wells were filled with 100 μL of sterile PBS. The next day compounds were added to cells. Compounds were first 2× diluted in 96-well V-bottom plate in PBS. After that compounds were mixed with media in 96-deep-well plate for final concentrations. Growth media from 3 plates was aspirated and replaced with 100 μL of prepared compounds. Compounds were tested in duplicate. ATP levels were measured by adding 50 μL of CellTiter-Glo reagent to each well and after 5 minutes of incubation luminescence was measured with SpectraMax i3. […] The potential effects were then calculated and presented as IC50 values (μg/mL).

[13] = tested on: Klebsiella pneumoniae ATCC 700603; experiment: microbe, parasite or virus in culture; assay type: cell-based; conditions: Klebsiella pneumoniae, ATCC700603
Description: (§3) Testing was performed according to CLSI (Clinical Laboratory Standards Institute) guidelines. Read out of the study was determination of MIC—minimal inhibitory concentration expressed in μg/mL.
(§4) Out of these PBS solutions, 76.8 μL was transferred to 1423.2 μL of MH media in deep well for testing compound alone. […] Out of these working solutions 100 μL were transferred to wells in the third column of 96-well assay plates. Assay plates were previously filled with 50 μL of MH media in all wells except for the wells in the third column.
(§5) Microorganisms used were all revived from skim milk storage at −70° C. by plating them on MH agar plates. The following day a single colony of each microorganism was again streaked on fresh agar plates. The next day, using direct colony suspension method, broth solutions that achieve turbidity equivalent to 0.5 McFarland standard for each microorganism were prepared. […] Out of these suspensions, actual inoculums were prepared by diluting them 100× with MH media giving final microorganism count of 2-8×10^5 CFU/mL. For each strain of microorganisms, 20 mL of these inoculum solutions were prepared. From the second to the twelfth column of 96-well plates, 50 μL of these solutions were transferred per well. To the first column, 50 μL per well of pure growth media was added. In this manner the first column was used as sterility control of media used, the second column was used as control of microorganism's growth and the rest of the plate was used for MIC determination. All plates were incubated for 16-24 h at 37° C.
(§6) MIC value was determined by visual inspection of bacterial growth within 96-well plates. The first column in which there was no visible growth of bacteria was determined as MIC value for peptide or combination tested in that particular row.

[14] = tested on: Acinetobacter baumannii ATCC 17978; experiment: microbe, parasite or virus in culture; assay type: cell-based; conditions: Acinetobacter baumannii, ATCC17978
Description: as §3, §4, §5, §6

[15] = tested on: Pseudomonas aeruginosa ATCC 27853; experiment: microbe, parasite or virus in culture; assay type: cell-based; conditions: Pseudomonas aeruginosa, ATCC27853
Description: as §3, §4, §5, §6

[16] = tested on: Escherichia coli ATCC 25922; experiment: microbe, parasite or virus in culture; assay type: cell-based; conditions: Escherichia coli, ATCC25922
Description: as §3, §4, §5, §6

L. lactis MG1363 [17] = experiment: microbe, parasite or virus in culture; conditions: Lactococcus lactis, MG1363, read-out: MIC value of antimicrobial compounds alone

SMILES: CC[C@@H](C)[C@@H](NC(=O)[C@@H](CCCNC(=N)N)NC(=O)[C@@H](CCCNC(=N)N)NC(=O)[C@@H](Cc1ccccc1)NC(=O)[C@@H](CC(C)C)NC(=O)[C@@H](CCCNC(=N)N)NC(=O)[C@H](N)CCCNC(=N)N)C(=O)N[C@H](CC(C)C)C(=O)N[C@H](CCCNC(=N)N)C(=O)N[C@H](Cc1c[nH]c2ccccc12)C(=O)N[C@H](CC(C)C)C(N)=O [GNP-D6]
- FICI (K. pneumoniae LMG20218 [1]; vancomycin + GNP): 0.75 and 0.5
- FICI (E. coli LMG15862 [2]; vancomycin + GNP): 0.75 and 0.5
- FICI (P. aeruginosa LMG 6395 [3]; vancomycin + GNP): 0.75
- FICI (A. baumannii LMG01041 [4]; vancomycin + GNP): 0.5 and 0.625
- FICI (E. aerogenes LMG 02094 [5]; vancomycin + GNP): 0.667
- MIC value of antimicrobial compounds alone (L. lactis MG1363 [6]): 2 µM
- FICI (K. pneumoniae LMG20218 [7]): 0.375
- FICI (E. coli LMG15862 [8]): 0.375
- FICI (E. aerogenes LMG 02094 [9]): 0.375
- FICI (P. aeruginosa LMG 6395 [10]): 0.25
- FICI (A. baumannii LMG01041 [11]): 0.313

SMILES: CN[C@H](CC(C)C)C(=O)N[C@H]1C(=O)N[C@@H](CC(N)=O)C(=O)N[C@H]2C(=O)N[C@H]3C(=O)N[C@H](C(=O)N[C@H](C(=O)O)c4cc(O)cc(O)c4-c4cc3ccc4O)[C@H](O)c3ccc(c(Cl)c3)Oc3cc2cc(c3O[C@@H]2O[C@H](CO)[C@@H](O)[C@H](O)[C@H]2O[C@H]2C[C@](C)(N)[C@H](O)[C@H](C)O2)Oc2ccc(cc2Cl)[C@H]1O [Vancomycin, reference compound]
- MICa (K. pneumoniae LMG20218 [1]; MIC of vancomycin alone): 128 µM
- MICa (E. coli LMG15862 [2]; MIC of vancomycin alone): 64 µM
- MICa (P. aeruginosa LMG 6395 [3]; MIC of vancomycin alone): 128 µM
- MICa (A. baumannii LMG01041 [4]; MIC of vancomycin alone): 32 µM
- MICa (E. aerogenes LMG 02094 [5]; MIC of vancomycin alone): 192 µM
- IC50 [12]: > 44.2 µM and > 64 µg/mL
- MIC [13]: > 128 µg/mL
- MIC [14]: 128 µg/mL
- MIC [15]: > 128 µg/mL
- MIC [16]: > 128 µg/mL
- MIC (L. lactis MG1363 [17]): 0.125 µM (≈ 0.181 µg/mL)
